Key:
[1] = system: BRAFV600E PTEN−/− melanoma cell line; test: In vitro treatment of melanoma cell line followed by Western blot, qRT-PCR, IP, ASC polymerization or ELISA; format: cell-based, mouse; settings: with or without NLRP3 inhibitor MCC950
From the text: Braf^V600EPten^−/− (male, BPD6 (40)), Braf^V600EPten^−/−-Wnt5a^KD (40), Braf^V600EPten^−/−-CXCL5^KD, Braf^V600EPten^−/−-PDL1^KD, Braf^V600EPten^−/−-NLRP3^KD, OVA-expressing Braf^V600EPten^−/−, BRAF^V600EPTEN^−/−-STAT3^CA, and Braf^V600EPten^−/−-NTC (40) cell lines were generated using shRNA-expressing lentiviral vectors and cultured as previously described (40): shNLRP3 (Sigma, SHCLN-NM_145827), shPDL1 (Sigma, SHCLND-NM_021893), shWnt5a (Sigma, SHCLND-NM_009524), shTLR4 (Sigma, SHCLNG-NM_025817, and pLKO.1-puro empty vector control (NTC) (Sigma, SHC001). Stable cell lines were selected by puromycin resistance (Sigma-Aldrich, P8833). Murine Lewis Lung Carcinoma (LLC) cell line is from ATCC (1704526). All cell lines were tested Mycoplasma-free by Duke University Cell Culture Facility shared services. All Braf^V600EPten^−/− cell lines and the LLC cell line were maintained at 37° C. in DMEM (Invitrogen) with 2 mM L-glutamine, supplemented with 10% fetal bovine serum, 100 units/ml penicillin. Depending on the experiment, cell lines were treated with Wnt5a (100-200 ng/ml, R&D Systems/Bio-techne, 645-WN-010), IFNγ (100 ng/ml, BioAbChem, 42-IFNg), anti-PD-L1 ab (1-2 μg/ml), Hsp70 (1 μM-10 μM, Enzo, ADI-ESP-502-D), Hsp70 inhibitor (ThermoFisher, VER155008), CLI-095 TLR4 inhibitor (3 μM-10 μM, Invivogen, tlrl-cli95), TLR2-IN-C29 TLR2 inhibitor (1 μM-10 μM, Glixx, GLXC-06203), MPLA TLR4 agonist (10 μM, Enzo, ALX-581-205-C100), LPS (Lipopolysaccharide) (10 ng, Sigma-Aldrich, L4391-1MG), ATP (1 mM-5 mM, Invivogen, tlrl-atpl), MCC950 NLRP3 inhibitor (2.5 μM-10 μM, Invivogen, inh-mcc), XAV939 β-catenin inhibitor (0.5-1.0 μM, Sigma-Aldrich, X3004-5MG), 2-Aminopurine PKR inhibitor (1 mM-5 mM, Invivogen, tlrl-apr), Verteporfin YAP inhibitor (0.1 μM-1 μM, R&D Systems/Bio-techne, 530510) or vehicle control either for 24 or 48 hrs prior to in vitro and in vivo experiments. Control siRNA (Santa Cruz, sc-37007). TLR4 siRNA (SantaCruz, sc-40261).
(§1) OT-1 CD8 cell activation was performed by incubating isolated splenocytes of OT-1 transgenic mice with IL-2 (100 U/ml) and SIINFEKL peptide (1 μg/ml, New England Peptide, BP10-915) for 3 days followed by magnetic bead CD8 purification according to the manufacturer's instructions (Miltenyi biotec, 130-104-075). Activated OT-1 CD8 cells were incubated with Braf^V600EPten^−/−-OVA cells and treated with anti-PD1 ab (1 μg/ml) for 72 hrs at a tumor cell:CD8^+ T cell ratio of 1:5. In separate experiments, Braf^V600EPten^−/− cells were treated with increasing concentrations of Dacarbazine (10 μmol-400 μmol).
Tumor tissue or cells were homogenized in NP40 lysis buffer (Sigma-Aldrich) supplemented with complete protease inhibitor and phosphatase inhibitor (Roche). Cells were lysed in Laemmli sample buffer after treatment and subjected to SDS-polyacrylamide gel electrophoresis. After transferring onto PVDF membranes (Bio-Rad), monoclonal and polyclonal primary antibodies and appropriate HRP-conjugated secondary antibodies were utilized for blotting. For the immunoprecipitation assays, cells were lysed with TBS buffer (50 mM Tris-HCl (pH 7.4), 150 mM NaCl) containing 0.5% Triton X-100, EDTA-free protease inhibitor cocktail and phosphatase inhibitor cocktail, precleared with protein A/G beads, and then incubated with 1 μg of appropriate antibodies or isotype control IgG on a rotator overnight at 4° C. then incubated with protein A/G-agarose at 4° C. for 1 hour. After 5 washes with TBS buffer, immunoprecipitated complexes were eluted in sample buffer by boiling and subjected to immunoblot analysis. Immunoblots were visualized by chemiluminescence substrate (ThermoFisher) and imaged by a ChemiDoc XRSplus system (BioRad). For the ASC polymerization assay, cells were lysed with TBS buffer containing 0.5% Triton X-100, EDTA-free protease inhibitor cocktail and phosphatase inhibitor cocktail. The lysates were centrifuged at 4,000 g at 4° C. for 15 min. […]

[2] = system: OT-1 CD8+ T cell:BRAFV600E OVA melanoma coculture; test: Coculture of OT-1 CD8+ T cells with OVA-expressing melanoma cells followed by Western blot; format: cell-based, mouse; settings: increasing concentrations of NLRP3 inhibitor
Experimental: as §1
Tumor tissue or cells were homogenized in NP40 lysis buffer (Sigma-Aldrich) supplemented with complete protease inhibitor and phosphatase inhibitor (Roche). Cells were lysed in Laemmli sample buffer after treatment and subjected to SDS-polyacrylamide gel electrophoresis. After transferring onto PVDF membranes (Bio-Rad), monoclonal and polyclonal primary antibodies and appropriate HRP-conjugated secondary antibodies were utilized for blotting. […]

## CC(C)(O)c1coc(S(=O)(=O)NC(=O)Nc2c3c(cc4c2CCC4)CCC3)c1 [MCC950, N-[[(1,2,3,5,6,7-hexahydro-s-indacen-4-yl)amino]carbonyl]-4-(1-hydroxy-1-methylethyl)-2-furansulfonamide]
[1]
  ATP stimulation of HSP70 release: block
[2]
  CD8+ T cell-mediated induction of HSP70 release: block

Reference: patent US12121565B2, “Methods of treatment of specific cancers with NLRP3 inhibitors and anti-PD1/PD-L1 antibodies” (Duke University, priority 2019, dated 2024)
